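Values below derive from 48-hour exposures of cells grown in 96-well plates, with endpoints linearly interpolated between the two concentrations bracketing the appropriate inhibition level. Here, GI50 denotes the concentration required for 50% inhibition of growth.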 Activity calls are given as the source filed them. Cut-off read from the data, not from the text of the source: active = GI50 up to about 1.1 µM and inactive = higher.

Test systems include MCF7; SNB-19; DU-145; U-251; NCI-H23; OVCAR-4; T47D; OVCAR-8; MDA-MB-231; HT-29; OVCAR-5; CCRF-CEM; EKVX; HCT-116; IGROV-1; LOX IMVI; SR; SK-MEL-5.
Experiment in all cases: NCI anticancer screen, dose series, 48 h

For the compound `O=[N+]([O-])C(/C(Cl)=C(/Cl)N1CCOCC1)=C1\Nc2ccccc2O1`, the GI50 in the test on MCF7 is > 100 µM (inactive); with SNB-19, > 100 µM (inactive); with DU-145, 70.3 µM (inactive); with U-251, 86.9 µM (inactive); in the test with NCI-H23, > 100 µM (inactive); with OVCAR-4 it was > 100 µM (inactive). For the same compound, the GI50 in the test with T47D, in the test on OVCAR-8, in the test on MDA-MB-231, in the test on HT-29, in the test with OVCAR-5 and in the test on CCRF-CEM was > 100 µM (inactive) throughout. The GI50 in the test with EKVX and with HCT-116 was > 100 µM (inactive) each time.

For the compound `CCC(C=O)P1(=O)OC(C)(C)CN1C(C)(C)C` (stereo not drawn), the GI50 in the test with IGROV-1 was > 100 µM (inactive); in the test with MCF7, 84.3 µM (inactive); with SNB-19, > 100 µM (inactive); in the test with LOX IMVI it was > 100 µM (inactive); in the test on DU-145 it was > 100 µM (inactive); with U-251 it was > 100 µM (inactive). For the same compound, the GI50 in the test on SR is > 100 µM (inactive); in the test on NCI-H23 it was > 100 µM (inactive); in the test with OVCAR-4 it was > 100 µM (inactive); in the test with T47D, 31.6 µM (inactive); in the test with OVCAR-8 it was > 100 µM (inactive); in the test with SK-MEL-5, > 100 µM (inactive). The GI50 in the test on MDA-MB-231 was > 100 µM (inactive); in the test on HT-29, > 100 µM (inactive); with OVCAR-5, > 100 µM (inactive); in the test on EKVX it was 91.4 µM (inactive); with HCT-116, 59.8 µM (inactive).

With `c1ccc(/N=c2/[nH]c3ccccc3s/c2=N/c2ccccc2)cc1`, the GI50 with IGROV-1, with SNB-19, in the test on LOX IMVI, in the test with DU-145, in the test on U-251 and in the test with SR was > 100 µM (inactive) each time. For the same compound, the GI50 is > 100 µM (inactive) with NCI-H23; > 100 µM (inactive) in the test with OVCAR-4; 93.8 µM (inactive) in the test on T47D; > 100 µM (inactive) in the test with OVCAR-8; > 100 µM (inactive) in the test on SK-MEL-5; > 100 µM (inactive) in the test on MDA-MB-231. Further, the GI50 in the test on HT-29 was 82 µM (inactive); with OVCAR-5, > 100 µM (inactive); in the test on CCRF-CEM, > 100 µM (inactive); with EKVX it was > 100 µM (inactive); with HCT-116, > 100 µM (inactive).

Take `COc1ccc(CNc2nc(NCc3ccc(OC)cc3)nc(Nc3ccccc3)n2)cc1`: the GI50 in the test on IGROV-1 is 9.71 µM (inactive); in the test on MCF7, 5.18 µM (inactive); with SNB-19, 17.8 µM (inactive); in the test on DU-145, 37.7 µM (inactive); with U-251, 16.7 µM (inactive); in the test on SR it was 1.11 µM (active). The GI50 with NCI-H23 is 12.4 µM (inactive); in the test on OVCAR-4 it was 8.87 µM (inactive); in the test with T47D, > 100 µM (inactive); in the test on OVCAR-8, 20.3 µM (inactive); in the test on SK-MEL-5 it was 8.57 µM (inactive); with MDA-MB-231 it was 24.1 µM (inactive). Moreover, the GI50 in the test with HT-29 was 1.93 µM (inactive); in the test on OVCAR-5 it was > 100 µM (inactive); with EKVX it was > 100 µM (inactive); in the test on HCT-116, 11.4 µM (inactive).

As for `CC(=O)O/C(C)=C\C(=O)O/N=C(\N)c1ccc(C)cc1`, the GI50 in the test on IGROV-1 was 28.3 µM (inactive); in the test with SNB-19 it was 43.7 µM (inactive); in the test on LOX IMVI, 34.4 µM (inactive); with U-251, 19.5 µM (inactive); in the test on SR it was 20.5 µM (inactive); in the test on NCI-H23, 22.2 µM (inactive). For the same compound, the GI50 in the test with OVCAR-4 was 25.8 µM (inactive); in the test on OVCAR-8 it was 36.6 µM (inactive); in the test on SK-MEL-5, 22.3 µM (inactive); with HT-29, 35.6 µM (inactive); with OVCAR-5, > 100 µM (inactive); in the test with CCRF-CEM it was 17.3 µM (inactive). Moreover, the GI50 with EKVX was 92.3 µM (inactive); in the test on HCT-116, 19.9 µM (inactive).

(Values after ChEMBL document CHEMBL1201862, “PubChem BioAssay data set” (2004).)
